Test results from US12071431B2, “Pyridin-sulfonamide compounds for the treatment of conditions related to interleukin 1 beta” (ALLINKY BIOPHARMA, priority 2018, dated 2024).

Assays:
[1] = system: human primary macrophages; experiment: Cell viability assessment (CellTiter-Glo) in the macrophage assay plates; format: cell-based; design: concentration or dose not given beside the values; conditions: CellTiter-Glo luminescent assay
Procedure: 2×10^5 PBMCs at a total volume of 200 μL/well were plated into a 96-well plate and incubated for 4 hrs at 37° C. in a CO2 incubator to allow the monocytes to settle, leaving the lymphocytes in suspension. Following incubation, 100 μL were aspirated out of each well to ensure removal of the lymphocyte population. The monocytes were differentiated to macrophages by addition of 200 ng/mL of recombinant human GM-CSF (4 mg/mL stock) and incubated at 37° C./5% CO2 for 6 days. The medium was changed every two days by removing half the volume of medium in the well and re-supplementing with fresh RPMI complete medium and recombinant human GM-CSF. Following differentiation, the cells were treated in duplicates with a compound according to the invention in a total volume of 50 μL, maintaining a final DMSO percentile of 0.5%. The plate was transferred to an incubator maintained at 37° C./5% CO2 for 2 hours. The cells were stimulated with 100 ng/mL of LPS (4×) (1 mg/mL stock) in a total volume of 50 μL. The plate was transferred to an incubator maintained at 37° C./5% CO2 for 16 hours. 100 μl/well volume of CellTiter-Glo® luminescent reagent was added to the assay plates and incubated at room temperature for 30 mins on a plate shaker. Following incubation, the luminescent signal of each well was determined using a microplate reader (Perkin Elmer ENVISION 2104). Cytotoxicity of the test compounds was determined utilizing the following formula: % Cytotoxicity=100−(100*(Average Test Compound Counts−Average Negative Control Counts)/(Average Positive Control Counts−Average Negative Control Counts)) All of the “Counts” stated in this formula are derived from “luminescent signal” determined as described for the cytokine viability assessment.

[2] = target: p38 MAPK (Homo sapiens, UniProt Q16539); experiment: In vitro binding of p38 MAPK, SPRi
Sequence of p38 MAPK (Q16539 2-360): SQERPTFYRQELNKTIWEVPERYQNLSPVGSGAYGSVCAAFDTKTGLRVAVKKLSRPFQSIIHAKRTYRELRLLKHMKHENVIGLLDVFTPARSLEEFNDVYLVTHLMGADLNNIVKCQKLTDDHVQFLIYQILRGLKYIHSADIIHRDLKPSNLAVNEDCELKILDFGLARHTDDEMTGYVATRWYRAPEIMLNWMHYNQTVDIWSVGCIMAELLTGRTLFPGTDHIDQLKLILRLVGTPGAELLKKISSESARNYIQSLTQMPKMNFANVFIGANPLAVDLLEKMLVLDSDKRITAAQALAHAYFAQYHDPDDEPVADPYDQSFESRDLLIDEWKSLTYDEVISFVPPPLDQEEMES
Procedure: Example 14—In Vitro Binding of p38 MAPK
Various concentrations of p38 MAPK dissolved in water were manually printed onto a bare gold-coated (thickness 47 nm) PlexArray Nanocapture Sensor Chip (Plexera Bioscience, Seattle, WA, US) at 40% humidity. Each concentration was printed in replicate, and each spot contained 0.2 μL of protein solution. The chip was incubated in 80% humidity at 4° C. for overnight, and rinsed with 10×PBST for 10 min, 1×PBST for 10 min, and deionized water twice for 10 min. The chip was then blocked with 5% (w/v) non-fat milk in water overnight, and washed with 10×PBST for 10 min, 1×PBST for 10 min, and deionized water twice for 10 min before being dried under a stream of nitrogen prior to use.
Surface Plasmon Resonance Imaging (SPRi) measurements were performed with PlexAray HT (Plexera Bioscience, Seattle, WA, US). Collimated light (660 nm) passes through the coupling prism, reflects off the SPR-active gold surface, and is received by the CCD camera. Buffers and samples were injected by a non-pulsatile piston pump into the 30 μL flowcell that was mounted on the coupling prism. Each measurement cycle contained four steps: washing with PBST running buffer at a constant rate of 2 μL/s to obtain a stable baseline, sample injection at 5 μL/s for binding, surface washing with PBST at 2 μL/s for 300 s, and regeneration with 0.5% (v/v) H3PO4 at 2 μL/s for 300 s. All the measurements were performed at 4° C.
The signal changes after binding and washing (in AU) are recorded as the assay value. Selected protein-grafted regions in the SPR images were analyzed, and the average reflectivity variations of the chosen areas were plotted as a function of time. Real-time binding signals were recorded and analyzed by Data Analysis Module (DAM, Plexera Bioscience, Seattle, WA, US). Kinetic analysis was performed using BIAevaluation 4.1 software (Biacore, Inc.).

[3] = system: Non-Alcoholic Steatohepatitis (NASH) in male C57BL/6 mice; experiment: Treatment of non-alcoholic steatohepatitis (NASH) in male C57BL/6 mice (streptozotocin + high-fat diet); format: in vivo
Procedure: Example 15: Effect of Compound 5 and 7 in the Treatment of Non-Alcoholic Steatohepatitis (NASH) in Male C57BL/6 Mice
Timed pregnant mice (n=30) were selected for the study. The delivered pups were subcutaneously injected on the post-natal day 2 (PND-2) with 200 μg of Streptozotocin and were allowed to remain with the mother until they reached the weanling age. After weanling, the male pups were selected and fed with 60% kcal fat diet (Research Diet-D12492) for the next 2 weeks. All the animals were observed twice daily for clinical signs.
Mice were dosed with vehicle, test compounds and reference compound (elafibranor) twice daily morning (9.00 AM) and evening before the start of dark cycle (6:00 PM) from day 0 to 28.
Animal body weight measurements were made daily for the complete duration of the experiment.
Animals were dosed for 28 days (from week 6 to 10) with the test and reference compounds.
Blood glucose was estimated before the treatment start and on the termination day 28. Serum ALT and AST levels were measured from the plasma before the treatment start and on day 28.
Histopathology analysis including H&E staining, Masson's trichrome staining and Oil-Red-O (ORO) staining was performed for the liver tissues.
All the H&E stained tissue sections were examined by light microscopy. As per the below grading system (Kleiner et al., 2005) in 200× objective lens, NAFLD scoring was done for steatosis, lobular inflammation and hepatic ballooning.
All the Masson's trichrome stained tissue sections were examined by light microscopy in 100× objective lens. Randomly selected five fields (approx 684.85 μm×917.11 m per field) from each liver were subjected to collagen proportion area measurement by using Image Pro Premier 9.1 software. The percentage of collagen proportion area was calculated by dividing collagen tissue area by total tissue area.
All the Oil-Red-O stained tissue sections were examined by light microscopy in 100× objective lens. Randomly selected five fields (approximately 688.33 μm×922.45 μm per field) from each liver were subjected to measure stained area by using Image Pro Premier 9.1 software. The percentage of stained area was calculated by dividing lipid stained tissue area by total tissue area.

[4] = 3 mg/kg dose, twice daily, 28 days, H&E NAFLD scoring

CCOc1ccc(Oc2cc(S(=O)(=O)N(C)C)cnc2N2CCC(Oc3ccc(Cl)cc3)CC2)cc1 [Compound 7] showed a Cell viability [1] of 100%, a Kd ([2]; SPRi, 4° C., p38 MAPK, read-out: equilibrium dissociation constant (KD Value)) of 11.9 nM and a kon ([2]; read-out: Ka) of 20800 M⁻¹ s⁻¹. The koff ([2]; read-out: Kd) was 0.000248 s⁻¹, the “NAFLD activity score (NAS)” value ([3]; 3 mg/kg dose, twice daily, 28 days, FIG. 1) was “better NAS score than Elafibranor” and the “lobular inflammation in the liver” value [3, 4] was “significantly reduced”. The “steatosis in the liver” value [3, 4] was “significantly reduced”, the “hepatomegaly and liver to body weight ratio” value ([3]; 28 days of treatment, FIG. 3) was “did not show any hepatomegaly and increase in liver to body weight ratio” and the “Serum AST levels” value ([3]; after 28 days of treatment, FIG. 2) was “significantly reduced”.
